In US20130245081A1, “Compositions and Methods for Treating Amyotrophic Lateral Sclerosis” (priority 2009, published 2013):

Legend:
healthy adult subjects = system: healthy adult subjects
Protocol: In both studies, safety was assessed by periodic measurement of vital signs, 12-lead ECGs, physical examinations, clinical laboratory parameters, and reports of adverse events. Baseline vital signs and changes from baseline were summarized with descriptive statistics by body position (supine or standing), dose level, and time point. Additionally, the number of subjects with substantial increases or decreases in blood pressure (>20 mmHg) and heart rate (>15 bpm) were tabulated by dose level and visit. The arithmetic mean of 3 readings of blood pressure and heart rate at each visit/position was used for the analysis. The shift from baseline for physical examination results was tabulated by body system, visit, and dose level. The overall ECG findings were summarized using a shift table comparing post-baseline visits to baseline. Laboratory parameters were summarized at each timepoint, including changes from baseline by dose level. In addition, abnormal values outside normal ranges were flagged. All safety data were summarized with descriptive statistics by dose group.
In the first study, subjects remained in the clinic for 72 hours after dosing, during which time they were monitored for safety and tolerability, and later returned to the clinic for a brief follow-up visit 7 days post-dose for clinical and laboratory assessments. In the second study, end-of-treatment evaluations were performed on Day 9, approximately 48 hours after the final dose, and subjects were discharged from the clinic for an outpatient visit on Day 10 and a follow-up visit on Day 14.

clinical = details: human, in vivo
Protocol: Pharmacokinetic analyses were based on data from 20 subjects in the 25 mg Q12H (n=8), 75 mg Q12H (n=8), and 150 mg Q12H (n=4) groups.

CCCN[C@@H]1CCc2nc(N)sc2C1 [dexpramipexole, (6R)-2-amino-4,5,6,7-tetrahydro-6-(propylamino)benzothiazole]
drug effect on vital signs, physical examinations, ECG, hematology and urinalysis (healthy adult subjects; either study): no evidence
serious adverse events or adverse events that led to early discontinuation (healthy adult subjects; either study): No serious adverse events
subjects reporting dizziness (healthy adult subjects; first study): 3 subjects
subjects reporting headache (healthy adult subjects; second study): 5 subjects
safety and tolerability (healthy adult subjects; single doses up to 300 mg, multiple doses up to 150 mg twice daily for 4½ days): safe and well tolerated
dose linearity of pharmacokinetics (clinical): linear
Tmax (clinical; 25 mg): 1.77 h
Tmax (clinical; 75 mg): 1.82 h
Tmax (clinical; 150 mg): 1.7 h
half-life (clinical; 150 mg): 6.63 to 8.73 h
